Reference: patent US20070082819A1 (priority 2003, published 2007)

Tested on: eight representative weed species
Details: in vivo

## CCCC[N+](CCCC)(CCCC)CCCC.[Br-] [Tetrabutylammonium hyrobromide, tetrabutylammonium bromide]
  Mean Activity (%): 72%
